Assay results reported in ChEMBL document CHEMBL1130919, “Probing the importance of spacial and conformational domains in captopril analogs for angiotensin converting enzyme activity” (Bioorg Med Chem Lett, 1998).

What was measured:
Neprilysin = target: T1, Neprilysin (Rattus norvegicus, UniProt P07861); assay: Compound was tested for its inhibitory activity against neutral endopeptidase 24.11 enzyme at the concentration of 10 uM; Inactive
T1 sequence (P07861 whole entry): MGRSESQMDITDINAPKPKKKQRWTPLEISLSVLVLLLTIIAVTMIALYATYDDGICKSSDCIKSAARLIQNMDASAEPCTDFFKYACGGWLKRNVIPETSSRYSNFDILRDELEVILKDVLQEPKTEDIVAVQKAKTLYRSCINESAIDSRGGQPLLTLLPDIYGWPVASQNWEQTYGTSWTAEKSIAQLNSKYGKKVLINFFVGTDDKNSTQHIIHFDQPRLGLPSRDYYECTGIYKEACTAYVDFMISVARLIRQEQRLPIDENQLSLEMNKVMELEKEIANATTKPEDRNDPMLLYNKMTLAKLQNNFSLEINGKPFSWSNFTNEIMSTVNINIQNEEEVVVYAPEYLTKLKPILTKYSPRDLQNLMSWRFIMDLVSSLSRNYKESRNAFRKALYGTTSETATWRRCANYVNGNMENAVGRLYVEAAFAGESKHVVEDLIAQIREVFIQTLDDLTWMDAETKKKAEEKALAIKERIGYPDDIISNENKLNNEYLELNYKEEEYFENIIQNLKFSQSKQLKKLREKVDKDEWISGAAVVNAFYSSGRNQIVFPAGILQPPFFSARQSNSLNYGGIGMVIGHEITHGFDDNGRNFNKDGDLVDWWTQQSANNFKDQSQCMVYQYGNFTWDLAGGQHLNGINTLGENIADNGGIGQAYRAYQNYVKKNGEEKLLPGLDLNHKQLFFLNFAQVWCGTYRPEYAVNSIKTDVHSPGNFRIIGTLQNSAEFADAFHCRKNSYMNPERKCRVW

[1] = target: T2, Angiotensin-converting enzyme (Oryctolagus cuniculus, UniProt P12822); assay: Compound was tested for its inhibitory activity against Angiotensin I converting enzyme
T2 sequence (P12822 whole entry): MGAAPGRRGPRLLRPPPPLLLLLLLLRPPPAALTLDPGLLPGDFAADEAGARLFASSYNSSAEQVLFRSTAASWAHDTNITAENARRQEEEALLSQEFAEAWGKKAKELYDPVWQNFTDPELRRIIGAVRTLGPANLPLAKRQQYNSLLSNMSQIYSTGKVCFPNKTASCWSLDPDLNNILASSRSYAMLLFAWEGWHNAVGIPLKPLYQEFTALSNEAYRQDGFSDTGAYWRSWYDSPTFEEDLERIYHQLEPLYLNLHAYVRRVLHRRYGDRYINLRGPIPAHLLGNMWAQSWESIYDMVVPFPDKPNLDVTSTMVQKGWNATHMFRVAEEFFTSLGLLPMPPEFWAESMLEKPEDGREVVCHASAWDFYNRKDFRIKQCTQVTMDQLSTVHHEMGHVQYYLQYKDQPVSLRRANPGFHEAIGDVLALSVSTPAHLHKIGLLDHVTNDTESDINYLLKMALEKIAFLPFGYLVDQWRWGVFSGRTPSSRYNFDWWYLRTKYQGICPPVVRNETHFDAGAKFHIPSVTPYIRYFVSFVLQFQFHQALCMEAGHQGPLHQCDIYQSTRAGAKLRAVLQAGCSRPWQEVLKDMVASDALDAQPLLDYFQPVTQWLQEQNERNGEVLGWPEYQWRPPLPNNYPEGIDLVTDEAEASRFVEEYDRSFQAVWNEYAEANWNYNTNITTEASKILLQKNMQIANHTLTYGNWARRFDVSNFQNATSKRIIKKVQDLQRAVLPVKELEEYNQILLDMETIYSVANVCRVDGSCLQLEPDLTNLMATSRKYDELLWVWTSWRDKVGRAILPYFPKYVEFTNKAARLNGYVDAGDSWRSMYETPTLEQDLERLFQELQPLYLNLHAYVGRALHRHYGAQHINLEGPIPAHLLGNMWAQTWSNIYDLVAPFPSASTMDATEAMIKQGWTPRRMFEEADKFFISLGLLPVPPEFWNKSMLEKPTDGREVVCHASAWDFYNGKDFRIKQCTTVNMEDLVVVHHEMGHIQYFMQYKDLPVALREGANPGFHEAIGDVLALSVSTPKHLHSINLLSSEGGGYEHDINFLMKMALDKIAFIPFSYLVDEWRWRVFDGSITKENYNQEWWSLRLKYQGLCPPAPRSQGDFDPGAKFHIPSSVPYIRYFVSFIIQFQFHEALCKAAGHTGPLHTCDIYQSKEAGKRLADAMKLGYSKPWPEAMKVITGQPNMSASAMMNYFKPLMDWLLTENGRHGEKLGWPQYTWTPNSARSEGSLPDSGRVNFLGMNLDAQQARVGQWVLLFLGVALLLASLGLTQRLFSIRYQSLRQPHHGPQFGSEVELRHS

[2] = target: T3, Endothelin-converting enzyme 1 (Homo sapiens, UniProt P42892); assay: Compound was tested for its inhibitory activity against Endothelin-converting enzyme at the concentration of 1 uM; Inactive
T3 sequence (P42892 whole entry): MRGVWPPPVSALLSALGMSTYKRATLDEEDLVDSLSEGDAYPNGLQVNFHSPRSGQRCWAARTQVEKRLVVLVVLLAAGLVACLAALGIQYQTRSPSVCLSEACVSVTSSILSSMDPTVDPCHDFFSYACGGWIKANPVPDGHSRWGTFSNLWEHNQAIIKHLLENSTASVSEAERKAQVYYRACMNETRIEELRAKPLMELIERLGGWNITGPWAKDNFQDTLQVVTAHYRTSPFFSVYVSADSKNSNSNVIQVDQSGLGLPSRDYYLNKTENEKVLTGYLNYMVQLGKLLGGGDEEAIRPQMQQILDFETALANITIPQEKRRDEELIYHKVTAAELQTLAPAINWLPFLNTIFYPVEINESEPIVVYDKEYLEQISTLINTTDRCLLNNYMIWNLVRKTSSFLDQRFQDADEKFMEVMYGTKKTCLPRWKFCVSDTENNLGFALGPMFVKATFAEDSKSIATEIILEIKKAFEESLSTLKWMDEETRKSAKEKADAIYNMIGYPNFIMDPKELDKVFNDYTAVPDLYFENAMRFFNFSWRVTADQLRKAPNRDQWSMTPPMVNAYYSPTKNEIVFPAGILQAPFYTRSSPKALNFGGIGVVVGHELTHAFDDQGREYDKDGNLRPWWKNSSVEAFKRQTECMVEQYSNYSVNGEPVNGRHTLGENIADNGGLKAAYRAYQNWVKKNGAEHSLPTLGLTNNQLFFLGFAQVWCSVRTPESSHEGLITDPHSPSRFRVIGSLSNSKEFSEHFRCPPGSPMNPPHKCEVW

IC50 (Neprilysin)	IC50 [1]	IC50 [2]	SMILES
Not Active	5.3 nM	Not Active	C[C@H](CS)C(=O)N1[C@@H]2C[C@@H]2CC[C@H]1C(=O)O
Not Active	6.6 nM	Not Active	C[C@H](CS)C(=O)N1[C@H](C(=O)O)C[C@@H]2C[C@@H]21
Not Active	7.6 nM	Not Active	C[C@H](CS)C(=O)N1[C@@H]2C[C@@H]2C[C@H]1C(=O)O
